Assay results from US20230167073A1 (Teijin Pharma Limited, priority 2020, published 2023).

molecular target: T1, Human TRPC6 (Homo sapiens, UniProt Q9Y210); assay: Evaluation of TRPC6 channel inhibitory activity (1), FLIPR Calcium 5 Assay Kit, OAG stimulation (Compound Nos. 1-1293); format: cell-based; conditions: Human TRPC6 stably-expressing cells, OAG 30 μM, FLIPR Calcium 5 Assay Kit; read-out: Inhibitory activity (pIC50 class) (converted)
T1 construct: expressed in transfected cells
T1 sequence (Q9Y210 1-931): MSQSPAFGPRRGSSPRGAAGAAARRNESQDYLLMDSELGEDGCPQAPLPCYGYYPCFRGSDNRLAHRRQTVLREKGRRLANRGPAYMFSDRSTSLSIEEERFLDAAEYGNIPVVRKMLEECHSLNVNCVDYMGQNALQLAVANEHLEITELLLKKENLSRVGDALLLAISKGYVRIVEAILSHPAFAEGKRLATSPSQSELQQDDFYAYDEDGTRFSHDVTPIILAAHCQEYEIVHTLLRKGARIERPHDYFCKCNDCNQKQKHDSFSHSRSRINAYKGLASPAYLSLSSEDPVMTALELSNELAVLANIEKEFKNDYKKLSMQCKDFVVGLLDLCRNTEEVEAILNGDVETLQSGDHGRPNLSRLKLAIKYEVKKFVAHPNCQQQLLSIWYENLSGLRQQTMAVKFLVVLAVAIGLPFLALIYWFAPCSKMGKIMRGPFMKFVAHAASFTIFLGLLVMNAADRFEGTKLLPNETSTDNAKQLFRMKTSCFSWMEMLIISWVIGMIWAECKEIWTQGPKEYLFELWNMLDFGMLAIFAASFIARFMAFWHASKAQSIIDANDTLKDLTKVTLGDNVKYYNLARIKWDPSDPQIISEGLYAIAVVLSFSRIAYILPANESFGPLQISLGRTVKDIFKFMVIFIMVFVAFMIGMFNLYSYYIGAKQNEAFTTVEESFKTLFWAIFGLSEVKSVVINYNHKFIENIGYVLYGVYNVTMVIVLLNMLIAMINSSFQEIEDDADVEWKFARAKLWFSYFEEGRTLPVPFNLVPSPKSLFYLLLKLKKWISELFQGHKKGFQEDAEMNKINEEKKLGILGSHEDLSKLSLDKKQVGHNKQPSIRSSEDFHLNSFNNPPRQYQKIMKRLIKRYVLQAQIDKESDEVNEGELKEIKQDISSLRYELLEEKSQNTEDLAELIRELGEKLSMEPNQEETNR
In short: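 TRPC6 (human) stable cells, 24 h culture; Ca5 no-wash dye + probenecid 30 min; cpd 20 min; OAG 30 μM final; ΔF (pre-cpd min to post-OAG max); 0%/100% = no cpd / no cpd + no OAG; 4PL → pIC50, binned +/++/+++.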

Compound | IC50 [nM]
CC(C)Cn1cc(Oc2cc(C#N)ccc2-c2ncc(CN)cn2)cn1 [compound 908, 4-[5-(aminomethyl)pyrimidin-2-yl]-3-[1-(2-methylpropyl)pyrazol-4-yl]oxybenzonitrile] | < 10
CN(C)c1cc(Oc2cc(C#N)ccc2-c2ccc([C@H](F)CN)cn2)n(C)n1 [compound 909, 4-[5-[(1S)-2-amino-1-fluoroethyl]pyridin-2-yl]-3-[5-(dimethylamino)-2-methylpyrazol-3-yl]oxybenzonitrile] | < 10
CN(C)c1cc(Oc2cc(C#N)ccc2-c2ccc([C@@H](F)CN)cn2)n(C)n1 [compound 910, 4-[5-[(1R)-2-amino-1-fluoroethyl]pyridin-2-yl]-3-[5-(dimethylamino)-2-methylpyrazol-3-yl]oxybenzonitrile] | < 10
N#Cc1ccc(-c2ncc(CCN)cn2)c(Oc2cnn(CC(F)(F)F)c2)c1 [compound 911, 4-[5-(2-aminoethyl)pyrimidin-2-yl]-3-[1-(2,2,2-trifluoroethyl)pyrazol-4-yl]oxybenzonitrile] | 10 to 1000
N#Cc1ccc(-c2ncc(CCN)cn2)c(Oc2cnn(-c3ccccn3)c2)c1 [compound 912, 4-[5-(2-aminoethyl)pyrimidin-2-yl]-3-(1-pyridin-2-ylpyrazol-4-yl)oxybenzonitrile] | < 10
CCN(CC)c1cc(Oc2cc(C#N)ccc2-c2ncc([C@H](F)CN)cn2)n(C)n1 [compound 913, 4-[5-[(1S)-2-amino-1-fluoroethyl]pyrimidin-2-yl]-3-[5-(diethylamino)-2-methylpyrazol-3-yl]oxybenzonitrile] | < 10
CCN(CC)c1cc(Oc2cc(C#N)ccc2-c2ncc([C@@H](F)CN)cn2)n(C)n1 [compound 914, 4-[5-[(1R)-2-amino-1-fluoroethyl]pyrimidin-2-yl]-3-[5-(diethylamino)-2-methylpyrazol-3-yl]oxybenzonitrile] | < 10
CCN(CC)c1cc(Oc2cc(C#N)ccc2-c2ccc([C@H](F)CN)cn2)n(C)n1 [compound 915, 4-[5-[(1S)-2-amino-1-fluoroethyl]pyridin-2-yl]-3-[5-(diethylamino)-2-methylpyrazol-3-yl]oxybenzonitrile] | < 10
CCN(CC)c1cc(Oc2cc(C#N)ccc2-c2ccc([C@@H](F)CN)cn2)n(C)n1 [compound 916, 4-[5-[(1R)-2-amino-1-fluoroethyl]pyridin-2-yl]-3-[5-(diethylamino)-2-methylpyrazol-3-yl]oxybenzonitrile] | < 10
N#Cc1ccc(-c2ncc(CCN)cn2)c(Oc2cncc(N3CCOCC3)c2)c1 [compound 917, 4-[5-(2-aminoethyl)pyrimidin-2-yl]-3-(5-morpholin-4-ylpyridin-3-yl)oxybenzonitrile] | 10 to 1000
N#Cc1ccc(-c2ncc(CN)cn2)c(Oc2cncc(N3CCOCC3)c2)c1 [compound 918, 4-[5-(aminomethyl)pyrimidin-2-yl]-3-(5-morpholin-4-ylpyridin-3-yl)oxybenzonitrile] | > 1000
Cc1ncc(N2CCOCC2)cc1Oc1cc(C#N)ccc1-c1ncc(CCN)cn1 [compound 919, 4-[5-(2-aminoethyl)pyrimidin-2-yl]-3-(2-methyl-5-morpholin-4-ylpyridin-3-yl)oxybenzonitrile] | 10 to 1000
Cc1ncc(N2CCOCC2)cc1Oc1cc(C#N)ccc1-c1ncc(CN)cn1 [compound 920, 4-[5-(aminomethyl)pyrimidin-2-yl]-3-(2-methyl-5-morpholin-4-ylpyridin-3-yl)oxybenzonitrile] | > 1000
Cc1nc(N2CCOCC2)ccc1Oc1cc(C#N)ccc1-c1ncc(CCN)cn1 [compound 921, 4-[5-(2-aminoethyl)pyrimidin-2-yl]-3-(2-methyl-6-morpholin-4-ylpyridin-3-yl)oxybenzonitrile] | > 1000
Cc1nc(N2CCOCC2)ccc1Oc1cc(C#N)ccc1-c1ncc(CN)cn1 [compound 922, 4-[5-(aminomethyl)pyrimidin-2-yl]-3-(2-methyl-6-morpholin-4-ylpyridin-3-yl)oxybenzonitrile] | > 1000
Cn1nc(C2CC2)cc1Oc1cc(C#N)ccc1-c1ccc(C(=O)CN)cn1 [compound 923, 4-[5-(2-aminoacetyl)pyridin-2-yl]-3-(5-cyclopropyl-2-methylpyrazol-3-yl)oxybenzonitrile] | 10 to 1000
Cc1nn(CC(F)F)cc1Oc1cc(C#N)ccc1-c1ncc(CCN)cn1 [compound 924, 4-[5-(2-aminoethyl)pyrimidin-2-yl]-3-[1-(2,2-difluoroethyl)-3-methylpyrazol-4-yl]oxybenzonitrile] | 10 to 1000
Cc1c(Oc2cc(C#N)ccc2-c2ncc(CCN)cn2)cnn1CC(F)F [compound 925, 4-[5-(2-aminoethyl)pyrimidin-2-yl]-3-[1-(2,2-difluoroethyl)-5-methylpyrazol-4-yl]oxybenzonitrile] | > 1000
C#CCOc1cc(Oc2cc(C#N)ccc2-c2ncc(CCN)cn2)nc(C)n1 [compound 926, 4-[5-(2-aminoethyl)pyrimidin-2-yl]-3-(2-methyl-6-prop-2-ynoxypyrimidin-4-yl)oxybenzonitrile] | > 1000

Other lines, results leading:

IC50 [nM] | Compound
10 to 1000 | N#Cc1ccc(-c2ncc(CCN)cn2)c(Oc2cnn(CC(F)F)c2)c1 [compound 927, 4-[5-(2-aminoethyl)pyrimidin-2-yl]-3-[1-(2,2-difluoroethyl)pyrazol-4-yl]oxybenzonitrile]
10 to 1000 | Cn1nc(-c2cncc(F)c2)cc1Oc1cc(C#N)ccc1-c1ncc(CN)cn1 [compound 928, 4-[5-(aminomethyl)pyrimidin-2-yl]-3-[5-(5-fluoropyridin-3-yl)-2-methylpyrazol-3-yl]oxybenzonitrile]
> 1000 | Cn1nc(Br)cc1Oc1cc(C#N)ccc1-c1ncc(CN)cn1 [compound 929, 4-[5-(aminomethyl)pyrimidin-2-yl]-3-(5-bromo-2-methylpyrazol-3-yl)oxybenzonitrile]
10 to 1000 | Cn1nc(-c2cncnc2)cc1Oc1cc(C#N)ccc1-c1ncc(CN)cn1 [compound 930, 4-[5-(aminomethyl)pyrimidin-2-yl]-3-(2-methyl-5-pyrimidin-5-ylpyrazol-3-yl)oxybenzonitrile]
< 10 | Cn1nc(-c2ccncn2)cc1Oc1cc(C#N)ccc1-c1ncc(CN)cn1 [compound 932, 4-[5-(aminomethyl)pyrimidin-2-yl]-3-(2-methyl-5-pyrimidin-4-ylpyrazol-3-yl)oxybenzonitrile]
> 1000 | Cc1nc(-c2cc(Oc3cc(C#N)ccc3-c3ncc(CN)cn3)n(C)n2)cn1C [compound 933, 4-[5-(aminomethyl)pyrimidin-2-yl]-3-[5-(1,2-dimethylimidazol-4-yl)-2-methylpyrazol-3-yl]oxybenzonitrile]
10 to 1000 | Cn1nc(-c2cccnn2)cc1Oc1cc(C#N)ccc1-c1ncc(CN)cn1 [compound 934, 4-[5-(aminomethyl)pyrimidin-2-yl]-3-(2-methyl-5-pyridazin-3-ylpyrazol-3-yl)oxybenzonitrile]
< 10 | Cn1nc(-c2cncs2)cc1Oc1cc(C#N)ccc1-c1ncc(CN)cn1 [compound 935, 4-[5-(aminomethyl)pyrimidin-2-yl]-3-[2-methyl-5-(1,3-thiazol-5-yl)pyrazol-3-yl]oxybenzonitrile]
10 to 1000 | Cn1ccnc1-c1cc(Oc2cc(C#N)ccc2-c2ncc(CN)cn2)n(C)n1 [compound 936, 4-[5-(aminomethyl)pyrimidin-2-yl]-3-[2-methyl-5-(1-methylimidazol-2-yl)pyrazol-3-yl]oxybenzonitrile]
< 10 | Cc1nn(CC(C)(C)C)cc1Oc1cc(C#N)ccc1-c1ncc(CCN)cn1 [compound 937, 4-[5-(2-aminoethyl)pyrimidin-2-yl]-3-[1-(2,2-dimethylpropyl)-3-methylpyrazol-4-yl]oxybenzonitrile]
10 to 1000 | Cc1c(Oc2cc(C#N)ccc2-c2ncc(CCN)cn2)cnn1CC(C)(C)C [compound 938, 4-[5-(2-aminoethyl)pyrimidin-2-yl]-3-[1-(2,2-dimethylpropyl)-5-methylpyrazol-4-yl]oxybenzonitrile]
10 to 1000 | Cc1nn(CC(C)C)c(C)c1Oc1cc(C#N)ccc1-c1ncc(CCN)cn1 [compound 939, 4-[5-(2-aminoethyl)pyrimidin-2-yl]-3-[3,5-dimethyl-1-(2-methylpropyl)pyrazol-4-yl]oxybenzonitrile]
> 1000 | Cc1nn(CC(F)F)c(C)c1Oc1cc(C#N)ccc1-c1ncc(CCN)cn1 [compound 940, 4-[5-(2-aminoethyl)pyrimidin-2-yl]-3-[1-(2,2-difluoroethyl)-3,5-dimethylpyrazol-4-yl]oxybenzonitrile]
